The values that follow come from US20110039770A1, “INHIBITORS OF PROTEIN KINASE C ISOFORMS AND USES THEREOF” (PHARMAGAP INC., priority 2005, published 2011).

Test in all cases: Tetracycline-induced expression of TIM 17 in IMR32 cells, PKC isoform level
Holding throughout (assay type): cell-based

The target of test [1] is PKC-α (Homo sapiens, UniProt P17252). Set-up: endogenous PKC-α in (A) untreated human neuroblastoma (IMR-32) cells; endogenous in cells; host or cells: IMR-32 human neuroblastoma cells. Particulars: TIM 17 transfected cells + 150 ng/ml tetracycline 48 h; flow cytometry. Here is the method:
(§1) The specificity and efficacy of compound TIM 17 (see Table 28) was tested intracellularly on 3 PKC isoforms (α, δ and ε), which are the main isoforms expressed in the IMR32 neuroblastoma cell lines and neuroblastoma biopsies.
(§2) The synthetic TIM 17 gene was subcloned into the pREx-DEST31(7559) expression vector and transfected into IMR32 neuroblastoma cells using standard techniques. Transcription of the TIM 17 gene is under the control of a tetracycline promoter that allows gene expression to be switched on and off. Expression of the TIM 17 gene was elicited by treatment with 150 ng/ml of tetracycline for 48 h.
The data were acquired from 20,000 to 50,000 individual cells. The graph scales report the number of events measured at the peak of fluorescence while the percentage of cells positive to the specific anti-PKCalpha antibody is shown on the graphs together with the relative intensity (see number provided below the percentage). The relative intensity correlates to the mean intracellular level of PKCalpha in the cell population.
The expression level of PKC-α, δ and ε was also assessed by fluorescence imaging using anti-PKC antibodies from SantaCruz and secondary Alexa 488 conjugate from Invitrogen. Microscopic images were obtained from a Coulter microscope equipped with epifluorescence and the images analyzed with ImagePro+ software with the assistance of DAGE-MTI camera. […]
A general note: In flow cytometry, cells or beads pass a laser one at a time.

For test [2], the target named is PKC delta (Homo sapiens, UniProt Q05655). More on the design: endogenous in cells. Particulars: fluorescence imaging; confirmed by Western blot. As to the method:
as §1, §2
(§3) The expression level of PKC-α, δ and ε was also assessed by fluorescence imaging using anti-PKC antibodies from SantaCruz and secondary Alexa 488 conjugate from Invitrogen. Microscopic images were obtained from a Coulter microscope equipped with epifluorescence and the images analyzed with ImagePro+ software with the assistance of DAGE-MTI camera. The same gating was maintained constant for all images. […] The above results were also confirmed by Western blot.
A general note: In western blotting, separated proteins are transferred to a membrane and probed.

Test [3] has as its target T1, PKC epsilon (Homo sapiens, UniProt Q02156).
T1 sequence (Q02156 1-737): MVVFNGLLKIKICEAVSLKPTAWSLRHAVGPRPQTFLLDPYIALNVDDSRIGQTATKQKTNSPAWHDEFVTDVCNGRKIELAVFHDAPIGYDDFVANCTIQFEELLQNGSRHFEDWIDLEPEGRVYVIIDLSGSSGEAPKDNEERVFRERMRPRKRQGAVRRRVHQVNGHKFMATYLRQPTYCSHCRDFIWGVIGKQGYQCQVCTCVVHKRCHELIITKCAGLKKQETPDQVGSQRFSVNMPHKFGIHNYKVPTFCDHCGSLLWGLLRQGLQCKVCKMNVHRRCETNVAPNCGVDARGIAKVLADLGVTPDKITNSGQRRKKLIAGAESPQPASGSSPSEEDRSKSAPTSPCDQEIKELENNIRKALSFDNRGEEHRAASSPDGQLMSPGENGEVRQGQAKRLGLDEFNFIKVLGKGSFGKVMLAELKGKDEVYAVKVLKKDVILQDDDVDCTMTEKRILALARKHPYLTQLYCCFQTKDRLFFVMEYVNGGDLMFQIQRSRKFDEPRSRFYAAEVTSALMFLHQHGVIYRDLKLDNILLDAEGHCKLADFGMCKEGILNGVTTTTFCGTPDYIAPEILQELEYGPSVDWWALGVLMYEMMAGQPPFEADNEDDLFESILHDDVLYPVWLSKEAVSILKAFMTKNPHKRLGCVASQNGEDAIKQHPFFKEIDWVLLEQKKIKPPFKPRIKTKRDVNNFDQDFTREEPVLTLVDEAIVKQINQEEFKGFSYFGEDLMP
Set-up: endogenous in cells. Particulars: fluorescence imaging; confirmed by Western blot. Here is the method: as §1, §2, §3

Sequence of PKC delta (Q05655 whole entry): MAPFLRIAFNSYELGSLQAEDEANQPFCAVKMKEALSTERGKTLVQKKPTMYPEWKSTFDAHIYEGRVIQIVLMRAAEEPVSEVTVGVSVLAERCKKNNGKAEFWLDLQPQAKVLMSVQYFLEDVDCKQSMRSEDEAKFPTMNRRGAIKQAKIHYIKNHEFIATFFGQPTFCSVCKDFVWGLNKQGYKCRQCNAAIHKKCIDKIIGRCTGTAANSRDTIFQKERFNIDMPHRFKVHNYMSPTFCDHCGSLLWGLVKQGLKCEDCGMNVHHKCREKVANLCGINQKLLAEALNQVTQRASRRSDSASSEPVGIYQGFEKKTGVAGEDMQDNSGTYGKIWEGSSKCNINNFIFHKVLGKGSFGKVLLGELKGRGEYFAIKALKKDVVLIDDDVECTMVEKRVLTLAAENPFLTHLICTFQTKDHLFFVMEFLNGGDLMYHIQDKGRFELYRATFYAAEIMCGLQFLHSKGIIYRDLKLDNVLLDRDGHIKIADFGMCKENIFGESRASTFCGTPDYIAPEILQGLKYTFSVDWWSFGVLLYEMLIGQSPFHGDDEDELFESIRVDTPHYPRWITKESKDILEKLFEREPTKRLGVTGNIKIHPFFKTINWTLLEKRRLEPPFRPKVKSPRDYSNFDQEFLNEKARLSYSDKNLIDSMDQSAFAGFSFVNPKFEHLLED

As to FRRKFRL—(G)7—KDAQNLIGISI [TIM 17], in test [1], the “percentage of cells expressing similar levels of PKCalpha as controls” value came to 30% and the “percentage of population with dramatic decrease in PKC alpha cellular content” value was found to be 69.8%. Further, the “intracellular level of PKC delta” value in test [2] is “did not, however, alter the intracellular level”. The “intracellular level of PKC epsilon” value in test [3] is reported as “did not, however, alter the intracellular level”.
